From a compilation of properties of binary mixtures (doi:10.1016/j.molliq.2020.113538)

Assay: xn = mol fraction of the nth substance listed
Details: 101 kPa

CCO + CC[n+]1ccn(CCOC)c1.O=S(=O)([O-])C(F)(F)F
x2 = 0
Details	viscosity [mPa·s]
288.15 K	1.319
293.15 K	1.195
298.15 K	1.086
303.15 K	0.989
308.15 K	0.903
313.15 K	0.825
318.15 K	0.757

CC[n+]1ccn(CCOC)c1.O=S(=O)([O-])C(F)(F)F + CCO
viscosity [mPa·s]
Details	x1 = 0.0996	x1 = 0.1999	x1 = 0.2996	x1 = 0.3984	x1 = 0.4991	x1 = 0.603	x1 = 0.699	x1 = 0.797	x1 = 0.899	x1 = 1
288.15 K	2.654	4.54	–	12.13	19.22	28.7	43.6	62.8	84.4	121
293.15 K	2.374	4.01	6.66	10.37	16.43	23.77	–	–	–	92.5
298.15 K	2.139	–	5.84	8.96	13.98	19.98	29.12	–	52.2	72.5
303.15 K	–	–	5.16	7.82	11.97	17.28	24.38	32.04	42.9	–
308.15 K	1.757	2.916	4.59	6.88	10.34	–	20.67	–	–	47.3
313.15 K	1.603	2.644	4.11	6.09	9.01	12.4	17.99	–	28.85	39
318.15 K	1.467	2.409	3.72	5.43	7.9	11.16	15.6	–	23.82	32.59
